Measured values as given in US11453657B2 (GlaxoSmithKline Intellectual Property Development Limited, priority 2018, dated 2022).
Counter-ions that a name gives are not always drawn. Like-named read-outs stand apart in the source and are kept apart here.

Test system: P. falciparum infected erythrocytes
Assay: P. falciparum growth inhibition assay ([3H]hypoxanthine incorporation)
Type: cell-based, Plasmodium falciparum
Description: P. falciparum Growth Inhibition Assay.
The sensitivity of P. falciparum infected erythrocytes to the compound was determined in duplicate using the [3H]hypoxanthine incorporation method with an inoculum of 0.5% parasitemia (ring stage) and 2% hematocrit. The parasites were grown in RPMI 1640, 25 mM HEPES and supplemented with 5% Albumax. Plates are incubated at 37° C., 5% CO2, 5% O2, 90% N2. After 24 h of incubation, [3H]hypoxanthine is added and plates are incubated for another 24 h. After that period, plates are harvested on a glass fiber filter using a TOMTEC Cell harvester 96. Filters are dried and melt on scintillator sheets and the bound radioactivity is quantified by use of a Wallac Microbeta Trilux (Model 1450 LS—Perkin Elmer). IC50s are determined using Grafit 7 program (Grafit program; Erithacus Software, Horley, Surrey, United Kingdom).
Each example compound was tested generally in accordance with the above-mentioned assay and the PfIC50 value for each compound is reported in the Table below and according to the following: […]

[1] = Plasmodium falciparum, Erythrocyte, read-out: average PfIC50
[2] = [3H]hypoxanthine incorporation, 0.5% parasitemia, 2% hematocrit, 48 h, read-out: PfIC50 Media
[3] = Plasmodium falciparum, Erythrocyte, [3H]hypoxanthine incorporation, 0.5% parasitemia, 2% hematocrit, 48 h, read-out: PfIC50 Media
[4] = Plasmodium falciparum, Erythrocyte, hydrochloride salt, read-out: average PfIC50 of the hydrochloride salt

| Structure (SMILES) | IC50 [1] [µM] | IC50 [3] [µM] | also measured |
| --- | --- | --- | --- |
| O=C(c1ccc(OC[C@H](O)Cc2nnn[nH]2)cc1)N1CC[C@H](c2ccc(F)cc2)C1 [Example 25, ((R)-3-(4-fluorophenyl)pyrrolidin-1-yl)(4-((R)-2-hydroxy-3-(1H-tetrazol-5-yl)propoxy)phenyl)methanone] | – | 1 to 5 | – |
| O=C(c1ccc(OC[C@H](O)Cn2cnnn2)cc1)N1CC[C@H](c2ccc(F)cc2)C1 [Example 5, ((R)-3-(4-Fluorophenyl)pyrrolidin-1-yl)(4-((R)-2-hydroxy-3-(1H-tetrazol-1-yl)propoxy)phenyl)methanone] | ≤ 0.05 | < 0.1 | – |
| COc1ccc(C2CCN(C(=O)c3ccc(OC[C@H](O)Cn4ncnn4)cc3)C2)cc1 (single isomer, unassigned) [Example 44b] | – | – | IC50 [2]: 0.5 to 1 µM |
| NC(=O)c1nnn(C[C@@H](O)COc2ccc(C(=O)N3CC[C@H](c4ccc(F)cc4)C3)cc2)n1 [Example 38, 2-((R)-3-(4-((R)-3-(4-Fluorophenyl)pyrrolidine-1-carbonyl)phenoxy)-2-hydroxypropyl)-2H-tetrazole-5-carboxamide] | – | 0.1 to 0.5 | – |
| N[C@@H](COc1ccc(C(=O)N2CC[C@H](c3ccc(F)cc3)C2)cc1)Cn1ncnn1 [Example 45, (4-((R)-2-Amino-3-(2H-tetrazol-2-yl)propoxy)phenyl)((R)-3-(4-fluorophenyl)pyrrolidin-1-yl)methanone] | 0.018 | < 0.1 | IC50 (Plasmodium falciparum, Erythrocyte, hydrochloride salt of the example, same assay, read-out: PfIC50 Media (uM), (HCl)): < 0.1 µM; IC50 [4]: 0.03 µM |
| O=C(c1ccc(OC[C@H](O)Cn2cnnc2)cc1)N1CC[C@H](c2ccc(F)cc2)C1 [Example 18, ((R)-3-(4-fluorophenyl)pyrrolidin-1-yl)(4-((R)-2-hydroxy-3-(4H-1,2,4-triazol-4-yl)propoxy)phenyl)methanone] | – | 1 to 5 | – |
| O=C(c1ccc(OCC(F)(F)Cn2cnnn2)cc1)N1CC[C@H](c2ccc(F)cc2)C1 [Example 4, (R)-(4-(2,2-Difluoro-3-(1H-tetrazol-1-yl)propoxy)phenyl)(3-(4-fluorophenyl)-pyrrolidin-1-yl)methanone] | ≤ 0.05 | < 0.1 | – |
| COc1ccc(C2CCN(C(=O)c3ccc(OC[C@H](O)Cn4ncnn4)cc3)C2)cc1 (single isomer, unassigned) [Example 44a] | – | – | IC50 [2]: < 0.1 µM |
| O=C(c1ccc(OC[C@H](O)Cn2ccnn2)cc1)N1CC[C@H](c2ccc(F)cc2)C1 [Example 17, ((R)-3-(4-fluorophenyl)pyrrolidin-1-yl)(4-((R)-2-hydroxy-3-(1H-1,2,3-triazol-1-yl)propoxy)phenyl)methanone] | ≤ 0.05 | < 0.1 | – |
| O=C(c1ccc(OC[C@H](O)Cn2ncnn2)cc1)N1CCC(c2ccccc2F)C1 (single isomer, unassigned) [Example 40b] | – | – | IC50 [2]: 0.1 to 0.5 µM |
| Cc1nnn(C[C@@H](O)COc2ccc(C(=O)N3CC[C@H](c4ccc(F)cc4)C3)cc2)n1 [Example 22, ((R)-3-(4-fluorophenyl)pyrrolidin-1-yl)(4-((R)-2-hydroxy-3-(5-methyl-2H-tetrazol-2-yl)propoxy)phenyl)methanone] | – | < 0.1 | – |
| O=C(c1ccc(OC[C@H](O)Cn2nccn2)cc1)N1CC[C@H](c2ccc(Cl)cc2)C1 [Example 31, ((R)-3-(4-chlorophenyl)pyrrolidin-1-yl)(4-((R)-2-hydroxy-3-(2H-1,2,3-triazol-2-yl)propoxy)phenyl)methanone] | ≤ 0.05 | < 0.1 | – |
| Cn1nnc(C[C@@H](O)COc2ccc(C(=O)N3CC[C@H](c4ccc(F)cc4)C3)cc2)n1 [Example 23, ((R)-3-(4-fluorophenyl)pyrrolidin-1-yl)(4-((R)-2-hydroxy-3-(2-methyl-2H-tetrazol-5-yl)propoxy)phenyl)methanone] | – | < 0.1 | – |
| N[C@@H](COc1ccc(C(=O)N2CC[C@@H](c3ccc(F)cc3)C2)cc1)Cn1ncnn1 [Example 50, (4-((R)-2-amino-3-(2H-tetrazol-2-yl)propoxy)phenyl)((S)-3-(4-fluorophenyl)pyrrolidin-1-yl)methanone, Hydrochloride] | – | 0.1 to 0.5 | IC50 [4]: 0.219 µM |
| O=C(c1ccc(OC[C@H](O)Cn2ccnc2)cc1)N1CC[C@H](c2ccc(F)cc2)C1 [Example 20, ((R)-3-(4-fluorophenyl)pyrrolidin-1-yl)(4-((R)-2-hydroxy-3-(1H-imidazol-1-yl)propoxy)phenyl)methanone] | – | < 0.1 | – |
| O=C(c1ccc(OC[C@@H](O)Cn2ncnn2)cc1)N1CC[C@@H](c2ccc(F)cc2)C1 [Example 14, ((S)-3-(4-Fluorophenyl)pyrrolidin-1-yl)(4-((S)-2-hydroxy-3-(2H-tetrazol-2-yl)propoxy)phenyl)methanone] | 1.2 | 1 to 5 | – |
| O=C(c1ccc(OC[C@H](O)Cn2cnnn2)cc1)N1CC[C@H](c2ccc(Cl)cc2)C1 [Example 28, ((R)-3-(4-chlorophenyl)pyrrolidin-1-yl)(4-((R)-2-hydroxy-3-(1H-tetrazol-1-yl)propoxy)phenyl)methanone] | – | < 0.1 | – |
| O=C(c1ccc(OC[C@H](O)Cn2cnnn2)cc1F)N1CC[C@H](c2ccc(Cl)cc2)C1 [Example 33, ((R)-3-(4-chlorophenyl)pyrrolidin-1-yl) (2-fluoro-4-((R)-2-hydroxy-3-(1H-tetrazol-1-yl)propoxy)phenyl)methanone] | – | 0.1 to 0.5 | – |
| O=C(c1ccc(OC[C@H](O)Cn2ncnn2)cc1)N1CC[C@H](c2ccc(F)cc2)C1 [Example 7, ((R)-3-(4-Fluorophenyl)pyrrolidin-1-yl)(4-((R)-2-hydroxy-3-(2H-tetrazol-2-yl)propoxy)phenyl)methanone] | ≤ 0.05 | < 0.1 | – |
| N[C@@H](COc1ccc(C(=O)N2CC[C@H](c3ccc(F)cc3)C2)c(F)c1)Cn1ncnn1 [Example 56, (4-((R)-2-amino-3-(2H-tetrazol-2-yl)propoxy)-2-fluorophenyl)((R)-3-(4-fluorophenyl)pyrrolidin-1-yl)methanone, Hydrochloride] | – | 0.1 to 0.5 | – |
| N[C@@H](COc1ccc(C(=O)N2CC[C@H](c3ccc(F)cc3)C2)cc1)Cn1cncn1 [Example 52, (4-((R)-2-amino-3-(1H-1,2,4-triazol-1-yl)propoxy)phenyl)((R)-3-(4-fluorophenyl)pyrrolidin-1-yl)methanone, Hydrochloride] | – | 0.1 to 0.5 | – |
| CC(COc1ccc(C(=O)N2CC[C@H](c3ccc(F)cc3)C2)cc1)Cn1cnnn1 (single isomer, unassigned) [Example 1b] | – | – | IC50 [2]: < 0.1 µM |
| N[C@H](COc1ccc(C(=O)N2CC[C@H](c3ccc(F)cc3)C2)cc1)Cn1ncnn1 [Example 49, (4-((S)-2-amino-3-(2H-tetrazol-2-yl)propoxy)phenyl)((R)-3-(4-fluorophenyl)pyrrolidin-1-yl)methanone, Hydrochloride] | – | 0.1 to 0.5 | IC50 [4]: 0.31 µM |
| O=C(c1ccc(OC[C@H](O)Cn2cncn2)cc1)N1CC[C@H](c2ccc(Cl)cc2)C1 [Example 30, ((R)-3-(4-chlorophenyl)pyrrolidin-1-yl) (4-((R)-2-hydroxy-3-(1H-1,2,4-triazol-1-yl)propoxy)phenyl)methanone] | – | < 0.1 | – |

The next lines start with results.

| IC50 [1] [µM] | IC50 [3] [µM] | Structure (SMILES) | also measured |
| --- | --- | --- | --- |
| ≤ 0.05 | – | O=C(c1ccc(OC[C@H](O)Cn2ncnn2)cc1)N1CCC(c2cccc(F)c2)C1 (single isomer, unassigned) [Example 41a] | IC50 [2]: < 0.1 µM |
| – | 0.1 to 0.5 | CC(COc1ccc(C(=O)N2CC[C@H](c3ccc(F)cc3)C2)cc1)Cn1cnnn1 (single isomer, unassigned) [Example 1a] | – |
| ≤ 0.05 | < 0.1 | O=C(c1ccc(OC[C@H](O)Cn2ncnn2)cc1)N1CCC(c2ccccc2F)C1 (single isomer, unassigned) [Example 40a] | – |
